In article PMC9856044 (Biomolecules, 2023):

Columns and labels:
[1] = molecular target: Tel22 (5′-AGGG(TTAGGG)3–3′) G-quadruplex; experiment: Fluorimetric titration with Tel22 in potassium phosphate buffer (K+ solution); type: binding, human
Experimental: Materials. Polynucleotides were purchased as noted: poly A–poly U, calf thymus ctDNA, poly(dAdT)2 and poly(dGdC)2 (Sigma-Aldrich, St. Louis, MI, USA). Polynucleotides were dissolved in Na-cacodylate buffer, I = 0.05 mol dm^−3, pH = 7.0. The calf thymus ctDNA was additionally sonicated and filtered through a […]. Polynucleotide concentration was determined spectroscopically as the concentration of phosphates. Spectrophotometric titrations were performed at pH = 7.0 (I = 0.05 mol dm^−3, sodium cacodylate buffer) by adding aliquots of polynucleotide solution into the solution of the studied compound for fluorimetric experiments and CD experiments were done by adding aliquots of the compound stock solution into the solution of a polynucleotide. In fluorimetric experiments, an excitation wavelength of λexc = 425, 431, 423, 427, 406 and 407 nm, respectively, was used to avoid the inner filter effect caused due to increasing absorbance of the polynucleotide. Emission was collected in the range λem = 400–700 nm. Values for Ka obtained by processing titration data using the Scatchard equation [27], all have satisfactory correlation coefficients (≥0.98).
Thermal melting curves for DNA, RNA and their complexes with studied compounds were determined as previously described by following the absorption change at 260 nm as a function of temperature. The absorbance of the ligands was subtracted from every curve and the absorbance scale was normalized. Tm values are the midpoints of the transition curves determined from the maximum of the first derivative and checked graphically by the tangent method. The ∆Tm values were calculated by subtracting Tm of the free nucleic acid from Tm of the complex. Every ∆Tm value here reported was the average of two measurements. The error in ∆Tm is ±0.5 °C. 5′-AGGG(TTAGGG)3–3′(Tel22) was obtained from IDT (Integrated DNA Technologies, Coralville, IA, USA). Tel22 was dissolved in 0.1 M either in sodium cacodylate or potassium phosphate buffer. The starting Tel22 oligonucleotide solution was first heated up to 95 °C for 10 min, then slowly cooled to 10 °C at the cooling rate of 1 °C/min to allow DNA oligonucleotide to adopt a G-quadruplex structure. The G-quadruplex structure was confirmed by thermal melting and CD spectra. The concentration of G quadruplex was expressed in terms of oligonucleotide structure. In fluorimetric titrations, aliquots of Tel 22 solution were added to the solution of ligands (c ~ 2 × 10^−7 M, in SI).
Binding constants (log Ka) and stoichiometry of complexes were calculated from the fluorimetric data using non-linear least-square program SPECFIT [46], in the concentration range that corresponded to 20–80% complex formed.

[2] = test system: HeLa cells; experiment: MTT cytotoxicity assay, HeLa; type: cell-based; details: Homo sapiens, 72 h incubation, ± SD
Experimental: Human cervical carcinoma HeLa (GIBCO BRL, Invitrogen, Waltham, MA, USA), human melanoma MDA-MB-435S and human ovarian adenocarcinoma SK-OV-3 (ATCC-LGC Standards GmbH, Wesel, Germany) cell lines were purchased from indicated cell culture banks. Normal human skin fibroblasts were isolated from the upper arm of a donor at the Neurochemical Laboratory, Department of Chemistry and Biochemistry, School of Medicine, University of Zagreb. HeLa, MDA-MB-435S and fibroblasts were grown in Dulbecco’s Modified Eagle’s Medium (DMEM; Sigma-Aldrich, St. Louis, MI, USA) while the SK-OV-3 cell line was grown in McCoy’s 5A medium (Capricorn Scientific, Ebsdorfergrund, Germany). All media were supplemented with 10% fetal bovine serum (FBS; Sigma-Aldrich) and 50 I.U./mL penicillin and 50 μg/mL streptomycin. Cells were cultured in a humidified atmosphere of 5% CO2 at 37 °C and were sub-cultured every 3–4 days. HeLa, MDA-MB-435S, SK-OV-3 cells and fibroblasts were seeded in 96 well plates. Twenty-four hours later the cells were treated, in quadruplicate, with different concentrations of compounds (dissolved in DMSO, kept at 4 °C and protected from light). Following 72 h of incubation at 37 °C, the medium was aspired and modified 3-(4,5-dimethylthiazol-2-yl)-2,5-diphenyltetrazolium bromide (MTT) assay was used to determine the cytotoxic effect of the tested compounds. Three hours later, formazan crystals were dissolved in DMSO (0.17 mL/well), the plates were mechanically agitated for 20 min and the optical density at 600 nm was determined on a microtiter plate reader (Awareness Technology Inc., Palm City, FL, USA). The experiments were repeated three times.

[3] = Solubility and aggregation (UV/Vis characterization); type: physicochemical; details: sodium cacodylate buffer, I = 0.05 mol dm^−3, pH = 7.0; UV/Vis
Experimental: The UV/vis spectra were recorded on a Varian Cary 100 Bio spectrophotometer (Agilent, Santa Clara, CA, USA), CD spectra on JASCO J815 spectrophotometer (ABL&E Handels GmbH, Wien, Austria) and fluorescence spectra on a Varian Cary Eclipse spectrophotometer (Agilent, Santa Clara, CA, USA) at 25 °C using appropriate 1 cm path quartz cuvettes.
Studied compounds, 1–6 were soluble (c = 8 × 10^−4 mol dm^−3) in DMSO. […] Therefore, the stock solution of 2 was prepared fresh before use. The experiments were done in aqueous buffer (sodium cacodylate buffer, I = 0.05 mol dm^−3; pH = 7.0).
However, the shape of UV/Vis spectra of cyanine 2 changed with increasing concentration (calibration experiment in Figure S2 in SI). In addition to the dominant maximum at 432 nm (which most likely corresponds to the monomer form of the dye), the absorption band at 413 nm becomes more intense (Figure S2 in SI). Presumably, it corresponds to the aggregated form (H-aggregate). Based on the existence of an absorption band at 432 nm, only the monomer dye form is visible at high temperature (95 °C) (Figure S8b in SI). However, after cooling the solution to 25 °C, an additional band appears at 413 nm, which corresponds to the aggregated dye form.

| Compound | log Ka (indicated by steeper slope of titration curves) ([1]; Tel22, K+ solution, no accurate fit possible) | IC50 [2] [µM] | Aggregation in aqueous buffer [3] | logKa (L + G ⇆ LG, 1:1 complex) ([1]; Tel22, potassium phosphate buffer, pH = 7.0, I = 0.1 mol dm^−3, SPECFIT fit) |
| --- | --- | --- | --- | --- |
| C[n+]1c(/C=C2\Sc3ccccc3N2CCCS)[se]c2ccccc21 [Compound 5, 2-((3-(3-mercaptopropyl)benzo[d]thiazol-2(3H)-ylidene)methyl)-3-methylbenzo[d][1,3]selenazol-3-ium methosulphate] | ≥ 7 | 27.9 ± 4.14 | significantly aggregate | – |
| CN1/C(=C/c2[se]c3ccccc3[n+]2C)Sc2ccccc21 [Compound 3, 3-methyl-2-((3-methylbenzo[d]thiazol-2(3H)-ylidene)methyl)benzo[d][1,3]selenazol-3-ium methosulphate] | – | 1.02 ± 0.672 | do not form aggregates | 6.88 ± 0.05 |
